The assay deals with T1, HIV protease (Human immunodeficiency virus type 1 group M subtype B, UniProt P04585).
T1 construct: A third viral enzyme known as protease then cleaves the polyproteins
In words: Enzymatic Assay for Determining the Inhibition Constant (Ki) of Synthetic Compounds Targeting the HIV Protease (fluorometric FRET assay). Format: biochemical. The source says:
Enzymatic Assay for Determining the Inhibition Constant (Ki) of Synthetic Compounds Targeting the HIV Protease
This is a fluorometric assay based on the cleavage by protease of a substrate carrying a donor group (EDANS) and an acceptor group (DABCYL) on each side of the cleavage site, interacting together through fluorescence resonance energy transfer (FRET) as described by Matayoshi et al. (Science 247:[…], 1990).
After calculation of Vo and Vi, the inhibition constant (Ki) of the compound is determined using the equation of Henderson: [formula]
where Vo=the enzyme's initial velocity
Vi=the enzyme velocity in the presence of the inhibitory compound,
[I]=inhlibitor concentration, [S]=substrate concentration,
Km=Michaelis-Menten constant and Kiapp=apparent Ki
Graphs are traced and the Ki determined using GraphPad Prism software v. 3.0.

[1] abbreviates: Anti-protease activity of Ne-amino acid substituted L-lysine derivatives and analogs of formula I, read-out: Ki.

Here are results for 28 molecules from patent US6610689B2, “HIV protease inhibitors based on amino acid derivatives” (priority 2001, dated 2003).

Where two headings read alike, the source gives them in different places.

For the molecule `Cc1ccc(S(=O)(=O)N(CC(C)C)[C@@H](CCCCNC(=O)[C@H](Cc2c[nH]c3ccccc23)NS(=O)(=O)c2cccs2)C(=O)O)cc1` [Example 53, Nα-Isobutyl-Nα-(4-methylbenzenesulfonyl)-Nε-[N′α-(2-thiophenesulfonyl)-L-tryptophanyl]-L-lysine], the Ki is 0.013 µM.
Same read-out and setting: next, `Cc1ccc(S(=O)(=O)N[C@@H](Cc2ccccc2)C(=O)NCCCC[C@@H](C(=O)O)N(CC(C)C)S(=O)(=O)c2cccs2)cc1` [Example 54, Nα-Isobutyl-Nα-(2-thiophenesulfonyl)-Nε-[N′α-(4-methylbenzenesulfonyl)-L-phenylalanyl]-L-lysine]: 0.017 µM.
`Cc1ccc(S(=O)(=O)N(CC(=O)NCCCC[C@@H](C(=O)O)N(CC(C)C)S(=O)(=O)c2ccc(C)cc2)CC(C)C)cc1` [Example 55, Nα-Isobutyl-Nα-(4-methylbenzenesulfonyl)-Nε-[N′α-isobutyl-N′α-(4-methylbenzenesulfonyl)-glycyl]-L-lysine]: the Ki under setting [1] amounted to 0.014 µM.
Regarding `CC(=O)Nc1ccc(S(=O)(=O)N[C@@H](Cc2ccccc2)C(=O)NCCCC[C@@H](C(=O)O)N(CC(C)C)S(=O)(=O)c2ccc(N)cc2)cc1` [Example 56, Nα-(4-Aminobenzenesulfonyl)-Nα-isobutyl-Nε-[N′α-(4-acetylaminobenzenesulfonyl)-L-phenylalanyl]-L-lysine], affinity was put at a Ki of 0.0019 µM.
`COC(=O)[C@H](CCCCNC(=O)[C@H](Cc1ccccc1)NS(=O)(=O)c1cccs1)N(CC(C)C)S(=O)(=O)c1ccc(C)cc1` [Example 57, Nα-Isobutyl-Nα-(4-methylbenzenesulfonyl)-Nε-[N′α-(2-thiophenesulfonyl)-L-phenylalanyl]-L-lysine Methyl Ester] returned a Ki of more than 0.3 µM.
Still for that read-out and setting: next, `Cc1ccc(S(=O)(=O)N(CC(C)C)[C@@H](CCCCNC(=O)[C@H](Cc2ccccc2)NS(=O)(=O)c2cccs2)C(N)=O)cc1` [Example 58, Nα-Isobutyl-Nα-(4-methylbenzenesulfonyl)-Nε-[N′α-(2-thiophenesulfonyl)-L-phenylalanyl]-L-lysinamide]: 0.0052 µM; `Cc1ccc(S(=O)(=O)N(CC(C)C)[C@@H](CCCCNC(=O)[C@H](Cc2ccccc2)NS(=O)(=O)c2cccs2)C(=O)NO)cc1` [Example 59, Nα-Isobutyl-Nα-(4-methylbenzenesulfonyl)-Nε-[N′α-(2-thiophenesulfonyl)-L-phenylalanyl]-L-lysine N-hydroxylamide]: 0.013 µM; `Cc1ccc(S(=O)(=O)N(CC(C)C)[C@@H](CCCCNC(=O)[C@H](Cc2ccccc2)NS(=O)(=O)c2cccs2)C(=O)NCCO)cc1` [Example 60, Nα-Isobutyl-Nα-(4-methylbenzenesulfonyl)-Nε-[N′α-(2-thiophenesulfonyl)-L-phenylalanyl]-L-lysine Ethanolamide]: more than 0.3 µM.
On the same count and under the same terms, next, `Cc1ccc(S(=O)(=O)N[C@@H](CC(N)=O)C(=O)NCCCC[C@@H](C(=O)O)N(CC(C)C)S(=O)(=O)c2ccc(C)cc2)cc1` [Example 61, Nα-Isobutyl-Nα-(4-methylbenzenesulfonyl)-Nε-[N′α-(4-methylbenzenesulfonyl)-L-asparagyl]-L-lysine]: 0.296 µM; `Cc1ccc(S(=O)(=O)N(CC(C)C)[C@@H](CCCCNC(=O)[C@H](CC(N)=O)NC(=O)C(C)(C)C)C(=O)O)cc1` [Example 62, Nα-Isobutyl-Nα-(4-methylbenzenesulfonyl)-Nε-(N′α-pivaloyl-L-asparagyl)-L-lysine]: 0.212 µM.
Regarding `Cc1ccc(S(=O)(=O)N(CC(C)C)[C@@H](CCCCNC(=O)[C@H](CC(N)=O)NC(=O)c2ccccc2)C(=O)O)cc1` [Example 63, Nα-Isobutyl-Nα-(4-methylbenzenesulfonyl)-Nε-(N′α-benzoyl-L-asparagyl)-L-lysine], the affinity corresponds to a Ki of 0.193 µM.
`Cc1ccc(S(=O)(=O)N(CC(C)C)[C@@H](CCCCNC(=O)[C@H](Cc2ccccc2)NS(=O)(=O)c2cccs2)C(=O)NN)cc1` [Example 64, Nα-Isobutyl-Nα-(4-methylbenzenesulfonyl)-Nε-[N′α-(2-thiophenesulfonyl)-L-phenylalanyl]-L-lysine Hydrazide]: the Ki under setting [1] is more than 0.3 µM.
Consider `Cc1ccc(S(=O)(=O)N(CC(C)C)[C@@H](CCCCNC(=O)[C@@H]2Cc3ccccc3CN2S(=O)(=O)c2ccc(C)cc2)C(=O)O)cc1` [Example 65], for which the Ki came to 0.024 µM.
With `Cc1ccc(S(=O)(=O)N[C@H](Cc2ccccc2)C(=O)NCCCC[C@H](C(=O)O)N(CC(C)C)S(=O)(=O)c2ccc(C)cc2)cc1` [Example 66, Nα-Isobutyl-Nα-(4-methylbenzenesulfonyl)-Nε-[N′α-(4-methylbenzenesulfonyl)-D-phenylalanyl]-D-lysine], the Ki is more than 0.3 µM.
Same read-out and setting: next, `Cc1ccc(S(=O)(=O)N[C@@H](Cc2ccccc2)C(=O)NCCCC[C@H](C(=O)O)N(CC(C)C)S(=O)(=O)c2ccc(C)cc2)cc1` [Example 67, Nα-Isobutyl-Nα-(4-methylbenzenesulfonyl)-Nε-[N′α-(4-methylbenzenesulfonyl)-L-phenylalanyl]-D-lysine]: more than 0.3 µM.
Same read-out and setting: next, `COC(=O)[C@H](CCCCNC(=O)[C@H](Cc1ccccc1)NS(=O)(=O)c1ccc(C)cc1)N(CC(C)C)S(=O)(=O)c1ccc(C)cc1` [Example 68, Nα-Isobutyl-Nα-(4-methylbenzenesulfonyl)-Nε-[N′α-(4-methylbenzenesulfonyl)-L-phenylalanyl]-L-lysine Methyl Ester]: more than 0.3 µM; `COC(=O)[C@H](CCCCNC(=O)[C@H](Cc1c[nH]c2ccccc12)NS(=O)(=O)c1ccc(C)cc1)N(CC(C)C)S(=O)(=O)c1ccc(C)cc1` [Example 69, Nα-Isobutyl-Nα-(4-methylbenzenesulfonyl)-Nε-[N′α-(4-methylbenzenesulfonyl)-L-tryptophanyl]-L-lysine Methyl Ester]: more than 0.3 µM.
Still for that read-out and setting: next, `COC(=O)[C@H](CCCCNC(=O)[C@H](Cc1ccccc1)NC(=O)c1ccccc1)N(CC(C)C)S(=O)(=O)c1ccc(C)cc1` [Example 70, Nα-Isobutyl-Nα-(4-methylbenzenesulfonyl)-Nε-(N′α-benzoyl-L-phenylalanyl)-L-lysine Methyl Ester]: more than 0.3 µM.
`COC(=O)[C@H](CCCCNC(=S)[C@H](Cc1ccccc1)NS(=O)(=O)c1ccc(C)cc1)N(CC(C)C)S(=O)(=O)c1ccc(C)cc1` [Example 71, Nα-Isobutyl-Nα-(4-methylbenzenesulfonyl)-Nε-[N′α-(4-methylbenzenesulfonyl)-L-thiophenylalanyl]-L-lysine Methyl Ester] yielded a Ki of more than 0.3 µM.
`Cc1ccc(S(=O)(=O)N[C@@H](Cc2ccccc2)C(=S)NCCCC[C@@H](C(=O)O)N(CC(C)C)S(=O)(=O)c2ccc(C)cc2)cc1` [Example 72, Nα-Isobutyl-Nα-(4-methylbenzenesulfonyl)-Nε-[N′α-(4-methylbenzenesulfonyl)-L-thiophenylalanyl]-L-lysine] had a Ki of 0.033 µM.
Still for that read-out and setting: next, `Cc1ccc(S(=O)(=O)N[C@@H](Cc2c[nH]c3ccccc23)C(=S)NCCCC[C@@H](C(=O)O)N(CC(C)C)S(=O)(=O)c2ccc(C)cc2)cc1` [Example 73, Nα-Isobutyl-Nα-(4-methylbenzenesulfonyl)-Nε-[N′α-(4-methylbenzenesulfonyl)-L-thiotryptophanyl]-L-lysine]: 0.014 µM.
Still for that read-out and setting: next, `Cc1ccc(S(=O)(=O)N(CC(C)C)[C@@H](CCCCNC(=S)[C@H](Cc2c[nH]c3ccccc23)NS(=O)(=O)c2ccccc2)C(=O)O)cc1` [Example 74, Nα-Isobutyl-Nα-(4-methylbenzenesulfonyl)-Nε-(N′α-benzenesulfonyl-L-thiotryptophanyl)-L-lysine]: 0.0048 µM; `COC(=O)[C@H](CCCCNC(=S)[C@H](Cc1c[nH]c2ccccc12)NS(=O)(=O)c1ccc(C)cc1)N(CC(C)C)S(=O)(=O)c1ccc(C)cc1` [Example 75, Nα-Isobutyl-Nα-(4-methylbenzenesulfonyl)-Nε-[N′α-(4-methylbenzenesulfonyl)-L-thiotryptophanyl]-L-lysine Methyl Ester]: more than 0.3 µM.
Same read-out and setting: next, `COC(=O)[C@H](CCCCNC(=S)[C@H](Cc1ccccc1)NC(=S)c1ccccc1)N(CC(C)C)S(=O)(=O)c1ccc(C)cc1` [Example 76, Nα-Isobutyl-Nα-(4-methylbenzenesulfonyl)-Nε-(N′α-thiobenzoyl-L-thiophenylalanyl)-L-lysine Methyl Ester]: more than 0.3 µM; `Cc1ccc(S(=O)(=O)N(CC(C)C)[C@@H](CCCCNC(=S)[C@H](Cc2ccccc2)NC(=S)c2ccccc2)C(=O)O)cc1` [Example 77, Nα-Isobutyl-Nα-(4-methylbenzenesulfonyl)-Nε-(N′α-thiobenzoyl-L-thiophenylalanyl)-L-lysine]: 0.212 µM; `Cc1ccc(S(=O)(=O)N(CC(C)C)[C@@H](CCCCNC(=O)[C@H](Cc2ccccc2)NC(=O)OC(C)(C)C)C(=O)O)cc1` [Example 78, Nα-Isobutyl-Nα-(4-methylbenzenesulfonyl)-Nε-(N′α-tert-butoxycarbonyl-L-phenylalanyl)-L-lysine]: 0.0025 µM.
`Cc1ccc(S(=O)(=O)N(CC(C)C)[C@@H](CCCCNC(=O)[C@@H](N)Cc2ccccc2)C(=O)O)cc1` [Example 79, Nα-Isobutyl-Nα-(4-methylbenzenesulfonyl)-Nε-(L-phenylalanyl)-L-lysine] returned a Ki of 0.0015 µM.
Same read-out and setting: next, `Cc1ccc(S(=O)(=O)N(CC(C)C)C(CCCCNC(=O)C(Cc2ccccc2)NC(=O)OC2CCOC2)C(=O)O)cc1` [Example 80, Nα-Isobutyl-Nα-(4-methylbenzenesulfonyl)-Nε-[N′α-(carbotetrahydro-3-furanyloxy)-L-phenylalanyl]-L-lysine]: 0.0014 µM.
